Results as given in US12642870B2, “Compositions and methods for delivery of nucleic acids” (Poseida Therapeutics, Inc., priority 2020, dated 2026).

Experiments:
[1] = test system: Resting T-cells; assay: LNP delivery of eGFP mRNA to resting T-cells; assay type: cell-based; settings: eGFP mRNA LNPs 0.4144:0.4585:0.1:0.027, lipid:nucleic acid 40:1, 0.5 ug mRNA per well, 24 hrs
Method: In one experiment, LNPs of the present disclosure comprising one of COMPOUNDS 1-4, DOPE, Cholesterol and DMG-PEG2000 at a molar ratio of 0.4144:0.4585:0.1:0.027 and further comprising Cleancap mRNA encoding eGFP were formed on a NanoAssemblr® (Precision Nanosystems). […] Resting T-cells were treated with varying amounts of the four LNP composition and at 24 hrs, the cells were analyzed to determine the percentage of cells that were viable and that expressed […]. The results of the analysis are shown in Table 12 for a dose of 0.5 ug mRNA per well.

[2] = Physical characterisation of mRNA-containing LNPs (DLS, NTA, zeta potential); assay type: physicochemical; settings: Fluc mRNA LNPs: compound/DOPE/Cholesterol/DMG-PEG2000 41.44/45.85/10/2.7, lipid:RNA 40:1 (w/w)
Method: A series of ten multi-component LNP compositions of the present disclosure comprising exemplary compounds of Formula (I) was prepared by combining various percentages of an exemplary compound of Formula (I), the phospholipid DOPE, the structural lipid cholesterol (Chol) and 1,2-dimyristoyl-sn-glycerol methoxypolyethylene glycol (DMG-PEG2000; Avanti Polar Lipids, Alabaster, Alabama, USA).
Individual 25 mg/ml stock solutions were prepared by solubilizing the lipids in 200-proof HPLC-grade ethanol and stock solutions were stored at −80° C. until formulated. At the time of formulation, the lipid stock solutions were briefly allowed to equilibrate to room temp and then placed on a hot plate maintained at a temperature range of 50-55° C.
A 1 mg/mi solution of the desired mRNA to be incorporated into the LNPs was added to 150 mM sodium acetate buffer (pH 5.2) to form a stock solution and kept on ice. The lipid phase was mixed with the aqueous m RNA phase inside a microfluidic chip using a NanoAssemblr® instrument (Precision Nanosystems, Vancouver, BC, Canada) according to the manufacturer's instructions to form LNP compositions comprising encapsulated mRNAs.
The resultant mRNA LNP compositions were then transferred to a Repligen Float-A-Lyzer dialysis device—having a molecular weight cut off (MWCO) of 8-10 kDa (Spectrum Chemical Mfg. Corp, CA, USA) and processed by dialysis against phosphate buffered saline (PBS) (dialysate:dialysis buffer volume at least 1:200 v/v), pH 7.4 overnight at 4° C. (or alternatively room temperature for at least 4 hours), to remove the 25% ethanol and achieve a complete buffer exchange. In some experiments the LNPs were further concentrated by in an Amicon® Ultra-4 centrifugal filter unit, MWCO-30 kDa (Millipore Sigma, USA) spun at ˜4100×g in an ultracentrifuge. The mRNA LNPs were then stored at 4° C. until further use.
A series of multicomponent LNP compositions comprising one of COMPOUNDS 1-8 described in Example 1 and the mRNA encoding flue was prepared according to Example 2 and the physical characteristics of the resulting LNPs were analyzed.
In a separate experiment, LNP compositions of the present disclosure comprising mRNA encoding firefly luciferase (hereafter “Fluc”; TriLink) and COMPOUNDS 1-8 were prepared as described in Example 2 by combining one of COMPOUNDS 1-8, the phospholipid DOPE, the structural lipid cholesterol (Chol) and 1,2-dimyristoyl-sn-glycerol methoxypolyethylene glycol (DMG-PEG2000) in the percentages presented in Table 8: […]

[3] = Physical characterisation of DNA-containing LNPs (DLS, NTA, zeta potential); assay type: physicochemical; settings: nano-pB-EF1a-GFP DNA LNPs: compound/DOPE/Cholesterol/DMG-PEG2000 38.0/50.0/10.0/2.0, lipid:DNA 45:1 (w/w)
Method: LNP compositions of the present disclosure comprising DNA, a nanoplasmid encoding a piggyBac transposon, wherein the piggyBac transposon comprised GFP under control of the EF1a promoter (herein referred to as the nano-pB-EF1a-GFP), and one of COMPOUNDS 1-8 were prepared as described in Example 3 by combining one of COMPOUNDS 1-8, the phospholipid DOPE, the structural lipid cholesterol (Chol) and 1,2-dimyristoyl-sn-glycerol methoxypolyethylene glycol (DMG-PEG2000) in the following percentages in Table 20: […]

[4] = test system: HEK293T cells; assay: In vitro LNP delivery of eGFP mRNA to adherent cells; assay type: cell-based; settings: 0.125 μg eGFP mRNA per well, 24 hr, flow cytometry, LNP 41.44/45.85/10.0/2.7, lipid:RNA 40:1
Method: HEK293T cells were seeded in 96 well plates and grown to 70% confluence in DMEM+10% FBS] under a 5% CO2 atmosphere at 37° C. A 0.125 μg amount of 5′-CleanCap-eGFP mRNA (TriLink Biotech) formulated with LNP compositions comprising COMPOUNDS 1-4 as prepared in Example 3 at the following percentages in Table 10 was added to each well.
After incubating for 24 hr, cells were imaged for GFP expression with a Leica fluorescence microscope and then detached from 96 well plate to quantitate expression by flow cytometry.

[5] = test system: Resting T-cells; assay: LNP delivery of nano-pB-EF1a-GFP DNA to resting T-cells; assay type: cell-based; settings: nano-pB-EF1a-GFP DNA LNPs 0.38:0.5:0.1:0.02, lipid:nucleic acid 45:1, 24 hr
Source text: The experiments described in this example used CD4/CD8 positive T-cells isolated from a leukapheresis product from a healthy donor.

[6] = test system: BALB/C mice; assay: In vivo intramuscular LNP delivery of fLuciferase mRNA, bioluminescent imaging; settings: for Ave flux (p/s) / Avg IM flux n = 2: intramuscular 20 μg fLuciferase mRNA; for Ave flux (p/s): LNP COMPOUND 2/DOPE/Cholesterol/DMG-PEG2000 32.411/32.411/32.411/2.77; for Avg IM flux n = 2: right hind limb, BLI at 4 hr, LNP compound/DOPE/Cholesterol/DMG-PEG2000 33.5/32.0/33.5/1.0, lipid:RNA 25:1
Method: (§1) Adult female BALB/C mice (n=2/group) were intramuscularly administered in the right hind limb of each mouse 20 μg of 5′-CleanCap-fLuciferase mRNA (TriLink Biotech) formulated with LNP composition comprising COMPOUND 2 as prepared according to Example 2 in the following percentages shown in Table 16:
The location and extent of luciferase expression in treated and untreated mice were determined at 4 hr and 24 hr by bioluminescent imaging (BLI) of anesthetized mice using an IVIS Lumina in vivo imaging system (Perkin Elmer) according to the manufacturer's instructions. Briefly, mice were anesthetized using isoflurane in oxygen, and placed supine on a heated stage. Mice were then administered D-luciferin (Perkin-Elmer #122799) IP, and BLI was performed.
as §1, with “In another experiment, adult female” for “Adult female”, “comprising one of COMPOUNDS 3-8” for “comprising COMPOUND 2”, “Example 3” for “Example 2”, “Table 18:” for “Table 16:”
The location and extent of luciferase expression in treated and untreated mice were determined at 4 hr by bioluminescent imaging (BLI) of anesthetized mice as described above.

[7] = test system: TF1a cells; assay: Genetic modification of suspension cell line by LNP-delivered nanoplasmid transposon; assay type: cell-based; settings: TF1a cells stably expressing SPB transposase; nanoplasmid transposon LNP 0.38:0.5:0.1:0.02; Day 6, flow cytometry
Method: In general, TF1a cells (a suspension cell line) were engineered to stably express the SPB transposase. Cell were plated at 5e5/ml. LNP comprising a nanoplasmid transposon coding for eGFP under control of the EF1a […] were added to each well at a concentration of […] (0.125 ug total) of DNA per well. Medium was exchanged and cells were split by spinning cells down in a v-bottom plate and resuspending cells in fresh RPMI+10% FBS+2 ug/ml Puromycin media on D4 post LNP addition). Day=6, cells were assessed for GFP expression by epifluorescence microscopy and flow cytometry.
For example, LNP compositions comprising COMPOUND 3 were prepared comprising COMPOUND 3, DOPE, Cholesterol and DMG-PEG2000 at a molar ratio of 0.38:0.5:0.1:0.02 and the nanoplasmid transposon and cells were assessed at Day 6 for GFP expression by epifluorescence microscopy and flow cytometry.

[8] = test system: HEK293T cells; assay: In vitro LNP delivery of nano-pB-EF1a-GFP DNA to adherent cells; assay type: cell-based; settings: 0.5 μg nano-pB-EF1a-GFP DNA per well in LNPs, flow cytometry
Method: HEK293T cells were seeded in 96 well plates and grown to 70% confluence in [DMEM+10% FBS] under a 5% CO2 atmosphere at 37° C. A 0.5 μg amount of nano-pB-EF1a-GFP DNA formulated with LNP compositions comprising COMPOUNDS 1, 3 & 4 as prepared in Examples 3 and 8 was added to each well. Following treatment with the LNPs, the cells were imaged for GFP+expression with a Leica fluorescence microscope and then detached from 96 well plate to quantitate expression by flow cytometry.

Row | Diameter (DLS; nm) [2] | Diameter (NTA; nm) [2] | PDI [2] | Total Particles/ml [2] | Zeta Potential (mV) [2] | Diameter (DLS; nm) [3] | Diameter (NTA; nm) [3] | PDI [3] | Zeta Potential (mV) [3] | SMILES | % Viable GFP+ [1] | % Viable GFP+ [4] | % Viable GFP+ [5] | Ave flux (p/s) ([6]; Lipid:RNA 25:1, 4 hr) | Ave flux (p/s) ([6]; Lipid:RNA 25:1, 24 hr) | Ave flux (p/s) ([6]; Lipid:RNA 50:1, 4 hr) | Ave flux (p/s) ([6]; Lipid:RNA 50:1, 24 hr) | location of luciferase expression (BLI) ([6]; intramuscular 20 μg fLuciferase mRNA in right hind limb) | cells positive for GFP expression [7] | % Viable GFP+ [8] | Avg IM flux n = 2 [6]
1 | 79.6 nm | 113.8 nm | 0.259 | 2.97E+10 Particles/ml | −0.19 mV | 80.6 nm | 105.0 nm | 0.221 | −0.02 mV | CC(C)C(CCC1CCC(C(=O)NCCCCCCNC(=O)C2CCC(CCC(SCCN(C)C)C(C)C)C(SCCN(C)C)C2)CC1SCCN(C)C)SCCN(C)C (stereo not shown) [Compound 2] | 5.5% | 17.5% | 4.4% | 4.58E+6 p/s | 3.53E+6 p/s | 9.67E+5 p/s | 8.09E+5 p/s | detected by BLI predominantly at the injection site | – | – | –
2 | – | – | – | – | – | – | – | – | – | CC(C)C(CCC(C)C(CCC1CCC(C(=O)NCCCCCCCCCCCCNC(=O)C2CCC(CCC(SCCN(C)C)C(C)CCC(SCCN(C)C)C(C)C)C(SCCN(C)C)C2)CC1SCCN(C)C)SCCN(C)C)SCCN(C)C (stereo not shown) [Compound 3] | 10.9% | 19.4% | 18.0% | – | – | – | – | – | ~9.8% | 97.1% | 5.8E+6
3 | – | – | – | – | – | – | – | – | – | CC(C)C(CCC1CCC(C(=O)NCCCCCCCCCCCCNC(=O)C2CCC(CCC(SCCN(C)C)C(C)C)C(SCCN(C)C)C2)CC1SCCN(C)C)SCCN(C)C (stereo not shown) [Compound 4] | 2.9% | 90.1% | 2.3% | – | – | – | – | – | – | ~17.1% | 2.07E+6
